Measurements reported in patent publication US12630600B2 (MEDIMMUNE LIMITED, priority 2022, dated 2026).
Like-named read-outs stand apart in the source and are kept apart here. Starred links: 1 amine or outer side, 2 acyl side, 3 side chain; linkers in the order of their positions; H or OH if unused. Non-standard residues stand in square brackets, D forms with d. Residues, ends and D or L forms follow the SMILES beside them. Groups on a side chain read outwards from the residue. *: point of attachment. C20 diacid = O=C(O)CCCCCCCCCCCCCCCCCCC(=O)*; C18 diacid = O=C(O)CCCCCCCCCCCCCCCCC(=O)*; γGlu = O=C(O)[C@H](CCC(=O)[*:2])N[*:1]; αMeF = C[C@](N)(Cc1ccccc1)C(=O)O; AEEA = NCCOCCOCC(=O)O; Aib = CC(C)(N)C(=O)O

Experiments:
[1] = tested on: Male C57Bl/6 mice; assay: Mouse acute food intake study; format: in vivo; details: s.c., dose 10 nmol/kg, food intake at 24 h vs vehicle
Description: Male C57Bl/6 mice obtained from Jackson Laboratories or Charles River at 8-9 weeks of age and were housed one per cage in BioDaq (Research Diets) cages. Mice were placed on Alpha Dri bedding, standard chow diet (Envigo, 2018) and given water pouches. Mice were allowed to acclimate for 1-2 weeks. Body weight was measured to ensure appropriate acclimation. After acclimation, mice were sham dosed a minimum of 2 times prior to initiation of food intake study. On study day, mice were placed in clean cage bottoms, weighed, and fasted for 6-8 hours. Mice were sorted into groups based on average 24-hour food intake data and body weight. 1-2 hours prior to lights out, mice were dosed subcutaneously with one vehicle or test peptide dissolved in an appropriate vehicle at 5 mL/kg. Mice were left undisturbed and allowed access to food and water for 48 hours. Automated food intake was monitored in the BioDaq system was monitored during this time. Discrete food intake data was exported into MS Excel from which cumulative food intake data was generated and analyzed.

[2] = tested on: T1, porcine pancreatic pepsin; assay: Proteolytic resistance to FasSSGF containing porcine pancreatic pepsin; format: in vitro ADME; details: pig, simulated gastric fluid
T1 construct: purchased Sigma P7012
Description: (§1) Lyophilized porcine pancreatic pepsin (Sigma: P7012) was reconstituted to 0.5 mg/mL (˜2500 units/mL) in freshly prepared FasSSGF (Biorelevant media) to give the enzyme stock solution. Peptide stock solution was prepared to a concentration of 250 μM (˜1.0 mg/mL) in FasSSGF. 200 μL ([…], ˜250 units) of pepsin stock solution was added to 200 μL of peptide solution (1.0 mg/mL, ˜100 μg of peptide, ˜25 nmoles) and the mixture was co-incubated in a temperature-regulated incubator at 37° C. for the duration of the experiment. 30 μL aliquot of the peptide-enzyme mixture was periodically withdrawn (t=0, 5, 10, 15, and 30 min) and quenched immediately by addition of 80 μL of 0.1 M ammonium bicarbonate solution in water/acetonitrile (4:1, pH 8) to arrest proteolytic activity. 30 μL aliquot was analyzed by analytical RP-HPLC. Analytical RP-HPLC method: Agilent Polaris C8-A column (4.6×100 mm, 3 micron) eluted with a linear binary gradient of 10-90°/MeCN (0.1% TFA v/v) in water (0.1% TFA v/v) over either 10 or 15 mins at 1.5 mL min-1 at 40° C. with detection by UV absorption at 210 nm. Manual integration (AUC) allowed estimation of remaining intact peptide over the time course of the experiment.

[3] = target: T2, neprilysin (Homo sapiens, UniProt P08473); assay: Proteolytic resistance to neprilysin; format: in vitro ADME; details: pH 8.3
T2 construct: purchased R&D Systems 1182-ZNC-010
Method in brief: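 Peptide (~250 µM stock) was mixed 1:1 with recombinant neprilysin (100 µg/mL stock) in Tris/NaCl/NaHCO3 buffer, pH 8.3, at 37 °C. Aliquots taken at 0, 30 min, 1, 2, 4 and 24 h were TFA-quenched. Intact peptide remaining was estimated by RP-HPLC peak area at 210 nm.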

[4] = tested on: wildtype (WT) mice; assay: Glucose change in wildtype mice; format: in vivo, mouse; details: s.c., 1.5 nmol/kg, somatostatin pretreatment 30 min prior to cpd
Method in brief: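 Chow-fed wildtype mice, 8-14 weeks old, n=4-8/group, fasted 2 h before peptide injection, in some studies after octreotide 10 mg/kg 30 min before dosing. Blood glucose by glucometer at −30, 0, 30, 60, 120, 180, 240 and 360 min; mice reused up to 3 times with ≥1-week washout.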

[5] = dog, in vivo, iv, 10 nmol/kg
Source text: (§2) Selected test peptides (n=8) were profiled for pharmacokinetic (PK) properties in the mouse after single intravenous (i.v.) or subcutaneous (s.c.) dose. A subset (n=4) meeting the acceptance criteria was subsequently profiled in the dog (single i.v. dose) and non-human primate (single i.v. and s.c. dose). […] Low-binding plasticware containers were used during preparation and sample handling to avoid non-specific binding.
Blood of each sample was transferred into plastic micro centrifuge tubes containing EDTA-K2, inverted several times for proper mixing of contents and then placed on wet ice.
(§3) Samples analysis: Samples were analyzed by LC-MS/MS. Calibration standards were injected at the beginning and end of each batch and the determined concentration for each prepared standard was used to construct a calibration curve. Plasma and dose aliquot sample concentrations were determined from the plasma calibration curve.
Data analysis: Plasma concentration data was analyzed by non-compartmental analysis (NCA) using Phoenix Winnonlin v. 8.3.3.33. Linear trapezoidal rule was used for increasing values and log trapezoidal rule was used for decreasing values, applying uniform weighting for lambda_z calculations. Subcutaneous bioavailability was calculated as the ratio AUC(s.c.)0-inf/AUC(i.v.)0-inf. Reported values (Table 18) represent the mean of the individual estimates.

[6] = cynomolgus monkey, in vivo, 20 nmol/kg
Source text: as §2
Non-human primate: PK was studied in non-naïve male cynomolgus monkeys. After dosing, PK samples were collected from the femoral vein. Blood of each sample was transferred into plastic micro centrifuge tubes containing EDTA-K2, inverted several times for proper mixing of contents and then placed on wet ice.
as §3
Data analysis: Plasma concentration data was analyzed by non-compartmental analysis (NCA) using Phoenix Winnonlin v. 8.3.3.33. […] Subcutaneous bioavailability was calculated as the ratio AUC(s.c.)0-inf/AUC(i.v.)0-inf. […]

[7] = target: T3, porcine pancreatic pepsin (Sus scrofa, UniProt P00791); assay: Proteolytic resistance to FasSSGF containing porcine pancreatic pepsin; format: in vitro ADME; details: 0 min, FasSSGF with pepsin, 37° C.
T3 construct: purchased Sigma P7012
Description: as §1

[8] = tested on: Pancreatin; assay: Proteolytic resistance to fasted-state simulated intestinal fluid (FasSSIF/Pancreatin); format: in vitro ADME; details: 0 min, 37° C.
Description: A fresh suspension of FasSSIF/P (Fasted-State Simulated Intestinal Fluid+USP Pancreatin®) was prepared according to that described by Galia, Nicolaides, Hörter, Löbenberg, Reppas and Dressman: Pharm. Res. 15 (1998) 698-70.5, and USP XL requirements. The resulting preparation was used immediately without storage.
Peptide for evaluation (1.0 mg) was dissolved in pre-warmed FasSSIF without Pancreatin® (200 μL). To this fresh FasSSIF/Pancreatin® (100 μL) was added to initiate potential proteolysis. Following momentary vortexing of the reaction tube the mixture was incubated at 37° C. in a thermostatic water bath for the duration of the experiment. 25 μL aliquot of the co-incubated peptide-enzyme mixture was periodically withdrawn (t=0, 5, 10 15 and 30 min) and quenched immediately by addition to a solution of 10% TFA in 1:1 water/acetonitrile (75 μL) to arrest proteolytic activity. Quenched samples were centrifuged (7800 RPM, 3 mins) to pellet solids and 10 μL aliquots of the supernatant solution were analyzed using analytical RP-HPLC as follows: Analytical RP-HPLC method: Agilent Polaris C8-A column (4.6×100 mm, 3 micron) eluted with a linear binary gradient of 10-90% MeCN (0.1% TFA v/v) in water (0.1% TFA v/v) over either 10 or 15 mins at 1.5 mL min^−1 at 40° C. with detection by UV absorption at 210 nm. […]

T2 sequence (P08473 whole entry): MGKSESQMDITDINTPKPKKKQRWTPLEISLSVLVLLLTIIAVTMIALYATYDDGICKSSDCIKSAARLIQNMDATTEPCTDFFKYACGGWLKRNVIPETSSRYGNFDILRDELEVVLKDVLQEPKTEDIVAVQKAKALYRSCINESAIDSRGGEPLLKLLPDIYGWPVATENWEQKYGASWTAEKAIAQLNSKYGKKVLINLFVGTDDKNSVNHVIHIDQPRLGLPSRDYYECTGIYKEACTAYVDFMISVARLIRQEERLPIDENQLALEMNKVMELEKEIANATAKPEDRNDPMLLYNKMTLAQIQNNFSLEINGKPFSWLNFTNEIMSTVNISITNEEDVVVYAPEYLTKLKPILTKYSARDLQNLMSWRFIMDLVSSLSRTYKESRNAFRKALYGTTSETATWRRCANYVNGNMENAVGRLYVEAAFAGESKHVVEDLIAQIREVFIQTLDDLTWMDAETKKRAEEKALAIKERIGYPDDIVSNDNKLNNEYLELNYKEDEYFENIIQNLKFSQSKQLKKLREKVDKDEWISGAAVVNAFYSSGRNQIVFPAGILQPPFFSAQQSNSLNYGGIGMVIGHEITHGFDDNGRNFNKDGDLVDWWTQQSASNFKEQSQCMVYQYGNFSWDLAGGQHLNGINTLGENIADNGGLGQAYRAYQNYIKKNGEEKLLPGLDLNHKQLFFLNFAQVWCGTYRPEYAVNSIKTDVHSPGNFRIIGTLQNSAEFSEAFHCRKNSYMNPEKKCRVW
T3 sequence (P00791 60-385): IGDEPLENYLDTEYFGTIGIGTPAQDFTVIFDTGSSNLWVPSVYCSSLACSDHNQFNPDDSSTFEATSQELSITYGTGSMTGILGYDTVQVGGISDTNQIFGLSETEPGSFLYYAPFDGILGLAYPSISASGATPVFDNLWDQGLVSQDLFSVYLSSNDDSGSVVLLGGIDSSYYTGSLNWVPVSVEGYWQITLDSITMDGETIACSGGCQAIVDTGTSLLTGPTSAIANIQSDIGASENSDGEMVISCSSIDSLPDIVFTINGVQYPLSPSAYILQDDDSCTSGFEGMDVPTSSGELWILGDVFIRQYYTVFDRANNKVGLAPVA

## CC[C@H](C)[C@H](NC(=O)[C@H](Cc1c[nH]c2ccccc12)NC(=O)[C@H](CCC(=O)O)NC(=O)[C@@H](NC(=O)[C@](C)(Cc1ccccc1)NC(=O)[C@H](CC(=O)O)NC(=O)[C@H](CCC(N)=O)NC(=O)[C@H](C)NC(=O)[C@H](C)NC(=O)[C@H](CCCCNC(=O)CC[C@H](NC(=O)CCCCCCCCCCCCCCCCC(=O)O)C(=O)O)NC(=O)[C@H](CO)NC(=O)[C@H](CC(=O)O)NC(=O)[C@H](CC(C)C)NC(=O)[C@](C)(Cc1ccccc1)NC(=O)[C@H](CCCCN)NC(=O)[C@H](CO)NC(=O)[C@@H](NC(=O)[C@H](CC(=O)O)NC(=O)[C@H](CO)NC(=O)[C@@H](NC(=O)[C@](C)(Cc1ccccc1)NC(=O)[C@H](CO)NC(=O)CNC(=O)[C@H](Cc1c[nH]cn1)NC(=O)C(C)(C)NC(=O)[C@@H](N)Cc1c[nH]cn1)[C@@H](C)O)C(C)C)C(C)C)C(=O)N[C@@H](C)C(=O)N[C@@H](CC(N)=O)C(=O)N[C@H](C(N)=O)[C@@H](C)O [Peptide 7] (H-H[Aib]HGS[αMeF]TSDVSK[αMeF]LDSK([γGlu-C18 diacid])AAQD[αMeF]VEWIANT-NH2; N-terminus assumed)
[1]
  24 hr % Vehicle Food Intake: 55.0%
[2]
  remaining at 10 min, 125 µM: 60%
[3]
  % intact peptide over time, Neprilysin: 100%
[4]
  WT % glucose change 120 min: 5.4%

## CC[C@H](C)[C@H](NC(=O)C(C)(C)NC(=O)[C@H](CCC(N)=O)NC(=O)[C@@H](NC(=O)[C@](C)(Cc1ccccc1)NC(=O)[C@H](CC(=O)O)NC(=O)[C@H](CCCCNC(=O)COCCOCCNC(=O)COCCOCCNC(=O)CC[C@H](NC(=O)CC[C@H](NC(=O)CCCCCCCCCCCCCCCCCCC(=O)O)C(=O)O)C(=O)O)NC(=O)[C@H](C)NC(=O)[C@H](C)NC(=O)[C@H](CCCNC(=N)N)NC(=O)[C@H](CO)NC(=O)[C@H](CC(=O)O)NC(=O)[C@H](CC(C)C)NC(=O)[C@](C)(Cc1ccccc1)NC(=O)[C@H](CCCCN)NC(=O)[C@H](CO)NC(=O)[C@@H](NC(=O)[C@H](CC(=O)O)NC(=O)[C@H](CO)NC(=O)[C@@H](NC(=O)[C@](C)(Cc1ccccc1)NC(=O)[C@H](CO)NC(=O)CNC(=O)[C@H](Cc1c[nH]cn1)NC(=O)C(C)(C)NC(=O)[C@@H](N)Cc1c[nH]cn1)[C@@H](C)O)C(C)C)C(C)C)C(=O)N[C@@H](C)C(=O)N[C@@H](CC(N)=O)C(=O)N[C@H](C(N)=O)[C@@H](C)O [Peptide 229, H-Aib-H-G-S-αMePhe-T-S-D-V-S-K-αMePhe-L-D-S-R-A-A-K(ε-(O2Oc)-(O2Oc)-γE-γE-C20diacid)20-D-αMePhe-V-Q-Aib-I-A-N-T-amide] (H-H[Aib]HGS[αMeF]TSDVSK[αMeF]LDSRAAK([AEEA-AEEA-γGlu-γGlu-C20 diacid])D[αMeF]VQ[Aib]IANT-NH2)
[3]
  % intact peptide over time, Neprilysin: 100%
[5]
  half-life: 86 h
[6]
  bioavailability: 75%
[6]; iv
  half-life: 130 h

## CC[C@H](C)[C@H](NC(=O)[C@H](Cc1ccccc1)NC(=O)[C@H](CCC(=O)O)NC(=O)[C@H](CCCCNC(=O)COCCOCCNC(=O)COCCOCCNC(=O)CC[C@H](NC(=O)CCCCCCCCCCCCCCCCC(=O)O)C(=O)O)NC(=O)[C@H](C)NC(=O)[C@H](C)NC(=O)[C@H](CCC(N)=O)NC(=O)CNC(=O)[C@H](CCC(=O)O)NC(=O)[C@H](CC(C)C)NC(=O)[C@H](Cc1ccc(O)cc1)NC(=O)[C@H](CO)NC(=O)[C@H](CO)NC(=O)[C@@H](NC(=O)[C@H](CC(=O)O)NC(=O)[C@H](CO)NC(=O)[C@@H](NC(=O)[C@H](Cc1ccccc1)NC(=O)[C@@H](NC(=O)CNC(=O)[C@H](CCC(=O)O)NC(=O)C(C)(C)NC(=O)[C@@H](N)Cc1cnc[nH]1)[C@@H](C)O)[C@@H](C)O)C(C)C)C(=O)N[C@@H](C)C(=O)N[C@@H](Cc1c[nH]c2ccccc12)C(=O)N[C@@H](CC(C)C)C(=O)N[C@H](C(=O)N[C@@H](CCCNC(=N)N)C(=O)NCC(=O)N[C@@H](CCCNC(=N)N)C(=O)NCC(=O)O)C(C)C [semaglutide, reference compound]
[7]
  % intact peptide over time (min), FasSSGF: 100%
[8]
  % intact peptide over time (min), FasSSIF: 100%
